molecular target: FABP4 (Homo sapiens, UniProt P15090); assay: TdF-based ligand binding affinity (FABP inhibitory activity assay); conditions: TdF-based ligand binding affinity constant
From the text: Theoretical basis for TdF-based ligand binding affinity constant
The derivation of TdF-based ligand binding affinity constant (Kd) followed closely those previously formulated by Brandts and Lin, Biochemistry 29 (1990) 6927-6940. In brief, the binding constant of the ligand at the Tm is expressed as below: […]
where T0 is the midpoint of unfolding for unliganded protein and Tm is the midpoint of unfolding in presence of ligand. [LTm] is free ligand at Tm. The ΔHu and ΔCpu are the enthalpy of unfolding and heat capacity change of unfolding for the protein respectively. The ΔCPu is proportional to the size of protein and is an approximate quantity in the above equation (empirically, ΔCpu=(MW of protein/115)*14 cal/mol*K). Following algorithm derived by Mayhood et al, (Analytical Biochemistry 345 (2005) 187-197), the T0 and ΔHu can be determined separately from nonlinear regression fitting the temperature dependent protein alone curve to the following equation: […]
The nonlinear regression fitting in general readily reaches convergence by properly constraining the initial values for the fitting parameters (e.g. the initial “guess” for the ΔHu was constrained to 120 kcal/mol; initial Yn and mr, were set to 1 and zero to best represent the melting curve along the low temperature region; negative slope of −0.5 was initially chosen for mu; initial Tm was also constrained to 50° C.).
(see Brandts et al and Mayhood et al, shown above) where ΔHL (T) is the van't Hoff enthalpy of ligand binding at temperature T and ΔCpL is the heat capacity upon ligand binding. For simplicity, the ΔCpL and ΔHL (T) were set to zero and −7 kcal/mol respectively. (The ΔCpL accounts for minimal portion of total protein-ligand binding energetics and is therefore set to zero (For example, see Hossein Naghibi et al, Proc. Natl. Acad. Sci. 92, 5597-5599 (1995), where ΔCpL was estimated to ˜2% of ΔHL at 25° C. obtained from calorimetric study of binding RNase A and 2′-CMP)).

Chain of FABP4 (P15090 whole entry): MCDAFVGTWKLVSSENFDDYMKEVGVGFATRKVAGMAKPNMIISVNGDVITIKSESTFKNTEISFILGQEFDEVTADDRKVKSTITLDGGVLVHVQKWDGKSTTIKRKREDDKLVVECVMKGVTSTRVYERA

Compound | Kd
O=C(c1nc2ccccc2nc1O)N1CCC[C@H]1Cc1cccc(Cl)c1 [Compound 8-8, (S)-(2-(3-chlorobenzyl)pyrrolidin-1-yl)(3-hydroxyquinoxalin-2-yl)methanone] | 300 nM
O=C(c1nc2ccccc2nc1O)N1CCCC1Cc1cccc(F)c1 (racemic) [Compound 1-51, (+/−)-[2-(3-Fluorobenzyl)pyrrolidin-1-yl](3-hydroxyquinoxalin-2-yl)methanone] | 1800 nM
O=C(c1nc2cc(F)c(F)cc2nc1O)N1CCCC1Cc1cccc(Cl)c1 (racemic) [Compound 1-2, (+/−)-[2-(3-chlorobenzyl)pyrrolidin-1-yl](6,7-difluoro-3-hydroxyquinoxalin-2-yl)methanone] | 80 nM
O=C(c1nc2cccc(Cl)c2nc1O)N1CCCC1Cc1cccc(Cl)c1 (racemic) [Compound 1-11, (+/−)-(5-Chloro-3-hydroxyquinoxalin-2-yl)[2-(3-chlorobenzyl)pyrrolidin-1-yl]methanone] | 3 nM
O=C(c1nc2cc(F)ccc2nc1O)N1CCCC1Cc1cccc(Cl)c1 (racemic) [Compound 1-3, (+/−)-[2-(3-Chlorobenzyl)pyrrolidin-1-yl](7-fluoro-3-hydroxyquinoxalin-2-yl)methanone] | 300 nM
CN(Cc1ccccc1)C(=O)c1nc2ccccc2nc1O [Compound 1-98] | 28400 nM
Nc1nc2ccccc2nc1C(=O)N1CCCC1Cc1cccc(Cl)c1 (centres unmarked) [Compound 5-2, (3-aminoquinoxalin-2-yl)[2-(3-chlorobenzyl)pyrrolidin-1-yl]methanone] | 10000 nM
O=C(c1nc2ccc(Cl)cc2nc1O)N1CCCC1Cc1cccc(Cl)c1 (racemic) [Compound 1-10, (+/−)-(6-Chloro-3-hydroxyquinoxalin-2-yl)[2-(3-chlorobenzyl)pyrrolidin-1-yl]methanone] | 250 nM
O=C(c1nc2cc(F)c(F)cc2nc1O)N1CCC[C@H]1Cc1cc(Cl)cc(Cl)c1 [Compound 8-12] | 1.3 nM
O=C(c1nc2ccccc2nc1O)N1CCCCC1Cc1cccc(F)c1 (racemic) [Compound 1-74, (+/−)-[2-(3-Fluorobenzyl)piperidin-1-yl](3-hydroxyquinoxalin-2-yl)methanone] | 4400 nM
O=C(c1nc2ccc(C(F)(F)F)cc2nc1O)N1CCCC1Cc1cccc(Cl)c1 (racemic) [Compound 1-39, (+/−)-[2-(3-Chlorobenzyl)pyrrolidin-1-yl][3-hydroxy-6-(trifluoromethyl)quinoxalin-2-yl]methanone] | 200 nM
O=C(c1nc2ccccc2nc1O)N1CCCC1Cc1cccc(Cl)c1 (centres unmarked) [Compound 1-99] | 950 nM
O=C(c1nc2ccc(F)cc2nc1O)N1CCCC1Cc1cccc(Cl)c1 (racemic) [Compound 1-4, (+/−)-[2-(3-Chlorobenzyl)pyrrolidin-1-yl](6-fluoro-3-hydroxyquinoxalin-2-yl)methanone] | 180 nM
COc1ccccc1CC1CCCCN1C(=O)c1nc2ccccc2nc1O (racemic) [Compound 1-73, (+/−)-(3-Hydroxyquinoxalin-2-yl)[2-(2-methoxybenzyl)piperidin-1-yl]methanone] | 2250 nM

The remaining compounds from weak to strong by Kd, led by results:

Kd | Compound
31000 nM | CCCN(CC1CC1)C(=O)c1nc2ccccc2nc1O [Compound 1-137]
26100 nM | COc1ccc(CCN(C)C(=O)c2nc3ccccc3nc2O)cc1OC [Compound 1-141]
23100 nM | CN(Cc1cccc(Cl)c1)C(=O)c1nc2ccccc2nc1O [Compound 1-143]
23000 nM | O=C(c1nc2ccccc2nc1O)N1CCCC1COc1ccc(F)cc1 (racemic) [Compound 1-55, (+/−)-{2-[(4-fluorophenoxy)methyl]pyrrolidin-1-yl}(3-hydroxyquinoxalin-2-yl)methanone]
22500 nM | COc1cc2nc(O)c(C(=O)N3CCCC3Cc3cccc(Cl)c3)nc2cc1OC (racemic) [Compound 1-38, (+/−)-[2-(3-Chlorobenzyl)pyrrolidin-1-yl](3-hydroxy-6,7-dimethoxyquinoxalin-2-yl)methanone]
15100 nM | O=C(c1nc2ccccc2nc1O)N1CCCC1COc1ccc(F)c(Cl)c1 (racemic) [Compound 1-64, (+/−)-{2-[(3-Chloro-4-fluorophenoxy)methyl]pyrrolidin-1-yl}(3-hydroxyquinoxalin-2-yl)methanone]
11300 nM | Cc1ccc(C(C)C)cc1N(C)C(=O)c1nc2ccccc2nc1O [Compound 1-124]
8600 nM | O=C(c1nc2ccccc2nc1O)N1CCCC(Cc2cccc(F)c2)C1 (racemic) [Compound 1-86, (+/−)-[3-(3-Fluorobenzyl)piperidin-1-yl](3-hydroxyquinoxalin-2-yl)methanone]
5500 nM | O=C(c1nc2ccccc2nc1O)N1CCCC(Cc2ccc(F)cc2)C1 (racemic) [Compound 1-88, (+/−)-[3-(4-Fluorobenzyl)piperidin-1-yl](3-hydroxyquinoxalin-2-yl)methanone]
4760 nM | COc1ccc(CC2CCCCN2C(=O)c2nc3ccccc3nc2O)cc1 (racemic) [Compound 1-80, (+/−)-(3-Hydroxyquinoxalin-2-yl)[2-(4-methoxybenzyl)piperidin-1-yl]methanone]
1800 nM | O=C(c1nc2ccccc2nc1O)N1CCCC1Cc1ccccc1Cl (centres unmarked) [Compound 1-115]
850 nM | O=C(c1nc2cc(Br)ccc2nc1O)N1CCCC1Cc1cccc(Cl)c1 (racemic) [Compound 1-37, (+/−)-(7-Bromo-3-hydroxyquinoxalin-2-yl)[2-(3-chlorobenzyl)pyrrolidin-1-yl]methanone]
548 nM | O=C(c1nc2ccc(C(F)(F)F)cc2nc1O)N1CCCC1Cc1ccc(Cl)c(Cl)c1 (centres unmarked) [Compound 1-164]
300 nM | O=C(c1nc2cc(S(=O)(=O)C(F)(F)F)ccc2nc1O)N1CCCC1Cc1cccc(Cl)c1 (racemic) [Compound 1-24, (+/−)-[2-(3-Chlorobenzyl)pyrrolidin-1-yl][3-hydroxy-7-(trifluoromethylsulfonyl)quinoxalin-2-yl]methanone]
250 nM | O=C(c1nc2ccccc2nc1O)N1CCC[C@H]1Cc1cc(Cl)cc(Cl)c1 [Compound 8-6, (S)-(2-(3,5-dichlorobenzyl)pyrrolidin-1-yl)(3-hydroxyquinoxalin-2-yl)methanone]
50 nM | O=C(c1nc2c(F)cc(F)cc2nc1O)N1CCC[C@H]1Cc1cc(Cl)cc(Cl)c1 [9-18, (S)-(2-(3,5-dichlorobenzyl)pyrrolidin-1-yl)(6,8-difluoro-3-hydroxyquinoxalin-2-yl)methanone]
7 nM | O=C(c1nc2cc(F)cc(F)c2nc1O)N1CCC[C@H]1Cc1cc(Cl)cc(Cl)c1 [9-16, (S)-(2-(3,5-dichlorobenzyl)pyrrolidin-1-yl)(5,7-difluoro-3-hydroxyquinoxalin-2-yl)methanone]

molecular target: FABP5 (Homo sapiens, UniProt Q01469); assay: FABP5 TdCD binding affinity; conditions: not given
Sequence (Q01469 whole entry): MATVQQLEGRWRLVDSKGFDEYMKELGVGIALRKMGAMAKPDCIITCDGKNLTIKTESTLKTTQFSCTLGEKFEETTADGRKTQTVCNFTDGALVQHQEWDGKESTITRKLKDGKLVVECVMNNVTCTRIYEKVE

Kd | Compound
500 nM | O=C(c1nc2ccccc2nc1O)N1CCC[C@H]1Cc1cccc(Cl)c1 [Compound 8-8, (S)-(2-(3-chlorobenzyl)pyrrolidin-1-yl)(3-hydroxyquinoxalin-2-yl)methanone]
